Data: PubChem BioAssay AID256 (DTP/NCI, 2004)
Values joined by “and” are separate entries in the source; they are usually repeats but may differ in a detail not shown here. Equal values may be shown once. Inconclusive results and toxic doses are left out. Rule for the calls: active = survival T/C of 150% or more; inactive = T/C below 125% in these data.

System: CD2F1 mice, L1210 leukemia ip, survival T/C
Assay: NCI In Vivo Anticancer Drug Screen. Data for tumor model L1210 Leukemia (intraperitoneal) in CD2F1 (CDF1) mice
Settings: higher = longer survival
Method in brief: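 Implant tumor; dose compound or vehicle; measure endpoint in both groups; report treated divided by control.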

[1] = endpoint: mean survival time, dose: 100.0 mg/kg/injection, schedule: Q01DX001 (ip), vehicle: saline
[2] = endpoint: mean survival time, dose: 100.0 mg/kg/injection, schedule: Q04DX002 (ip), vehicle: saline with Tween-80
[3] = endpoint: mean survival time, dose: 200.0 mg/kg/injection, schedule: Q01DX001 (ip), vehicle: saline
[4] = endpoint: mean survival time, dose: 200.0 mg/kg/injection, schedule: Q04DX002 (ip), vehicle: saline with Tween-80
[5] = endpoint: mean survival time, dose: 400.0 mg/kg/injection, schedule: Q01DX001 (ip), vehicle: saline
[6] = endpoint: mean survival time, dose: 400.0 mg/kg/injection, schedule: Q04DX002 (ip), vehicle: saline with Tween-80
[7] = endpoint: mean survival time, dose: 50.0 mg/kg/injection, schedule: Q01DX009 (ip), vehicle: saline with Tween-80
[8] = endpoint: mean survival time, dose: 100.0 mg/kg/injection, schedule: Q01DX009 (ip), vehicle: saline with Tween-80
[9] = endpoint: mean survival time, dose: 200.0 mg/kg/injection, schedule: Q01DX009 (ip), vehicle: saline with Tween-80
[10] = endpoint: mean survival time, dose: 100.0 mg/kg/injection, schedule: Q01DX001 (ip), vehicle: saline with Tween-80
[11] = endpoint: mean survival time, dose: 200.0 mg/kg/injection, schedule: Q01DX001 (ip), vehicle: saline with Tween-80
[12] = endpoint: mean survival time, dose: 400.0 mg/kg/injection, schedule: Q01DX001 (ip), vehicle: saline with Tween-80
[13] = endpoint: mean survival time, dose: 400.0 mg/kg/injection, schedule: Q01DX009 (ip), vehicle: saline with Tween-80
[14] = endpoint: mean survival time, dose: 100.0 mg/kg/injection, schedule: Q04DX003 (ip), vehicle: saline with Tween-80
[15] = endpoint: mean survival time, dose: 200.0 mg/kg/injection, schedule: Q04DX003 (ip), vehicle: saline with Tween-80
[16] = endpoint: mean survival time, dose: 400.0 mg/kg/injection, schedule: Q04DX003 (ip), vehicle: saline with Tween-80

Measured: T/C

COc1cccc2c1C(=O)c1c(O)c3c(c(O)c1C2=O)C[C@@](O)(/C(C)=N\NC(=O)CO)C[C@@H]3OC1CC(N)C(O)C(C)O1 (stereo partly drawn)
inactive: endpoint: mean survival time, dose: 0.25 mg/kg/injection, schedule: Q01DX009 (ip), vehicle: water 103 % of control | endpoint: mean survival time, dose: 0.5 mg/kg/injection, schedule: Q01DX009 (ip), vehicle: water 101 % of control | endpoint: mean survival time, dose: 0.78 mg/kg/injection, schedule: Q01DX009 (ip), vehicle: water 107 % of control | endpoint: mean survival time, dose: 1.0 mg/kg/injection, schedule: Q01DX009 (ip), vehicle: water 98 % of control | endpoint: mean survival time, dose: 1.0 mg/kg/injection, schedule: Q04DX003 (ip), vehicle: saline with Tween-80 115 % of control | endpoint: mean survival time, dose: 1.56 mg/kg/injection, schedule: Q01DX009 (ip), vehicle: water 107 % of control | endpoint: mean survival time, dose: 2.0 mg/kg/injection, schedule: Q01DX009 (ip), vehicle: water 106 % of control | endpoint: mean survival time, dose: 2.0 mg/kg/injection, schedule: Q04DX003 (ip), vehicle: saline with Tween-80 113 % of control | endpoint: mean survival time, dose: 3.13 mg/kg/injection, schedule: Q01DX009 (ip), vehicle: water 119 % of control | endpoint: mean survival time, dose: 4.0 mg/kg/injection, schedule: Q01DX009 (ip), vehicle: water 111 % of control | endpoint: mean survival time, dose: 4.0 mg/kg/injection, schedule: Q04DX003 (ip), vehicle: saline with Tween-80 117 % of control | endpoint: mean survival time, dose: 8.33 mg/kg/injection, schedule: Q04DX003 (ip), vehicle: saline 121 % of control | endpoint: mean survival time, dose: 12.5 mg/kg/injection, schedule: Q01DX009 (ip), vehicle: saline 101 % of control | endpoint: mean survival time, dose: 12.5 mg/kg/injection, schedule: Q01DX009 (ip), vehicle: water 115 % of control

O=c1ccc2ccccc2o1
inactive: endpoint: mean survival time, dose: 50.0 mg/kg/injection, schedule: Q01DX009 (ip), vehicle: Klucel (hydroxypropylcellulose) (HPC) 100 % of control | endpoint: mean survival time, dose: 100.0 mg/kg/injection, schedule: Q01DX009 (ip), vehicle: Klucel (hydroxypropylcellulose) (HPC) 96 % of control | endpoint: mean survival time, dose: 200.0 mg/kg/injection, schedule: Q01DX009 (ip), vehicle: Klucel (hydroxypropylcellulose) (HPC) 96 % of control

CCOC(=O)Nc1cc(N)c2nc(CN(C)c3ccccc3)cnc2n1
inactive: endpoint: mean survival time, dose: 100.0 mg/kg/injection, schedule: Q01DX001 (ip), vehicle: other 91 % of control | endpoint: mean survival time, dose: 200.0 mg/kg/injection, schedule: Q01DX001 (ip), vehicle: other 94 % of control | endpoint: mean survival time, dose: 400.0 mg/kg/injection, schedule: Q01DX001 (ip), vehicle: other 91 % of control

CC1C=CC(C)S1 (stereo not drawn)
inactive: [1] 100 % of control | [2] 101 % of control | [3] 101 % of control | [4] 104 % of control | [5] 105 % of control | [6] 112 % of control

O=C=Nc1cccc2c(N=C=O)cccc12
inactive: endpoint: mean survival time, dose: 12.5 mg/kg/injection, schedule: Q01DX009 (ip), vehicle: saline with Tween-80 91 % of control | endpoint: mean survival time, dose: 25.0 mg/kg/injection, schedule: Q01DX009 (ip), vehicle: saline with Tween-80 102 % of control | [7] 91 % of control

Cc1ccc2cccc(CC(=O)O)c2c1
inactive: [2] 102 % of control | [4] 98 % of control | [6] 91 % of control

NCCCCCCN=C(N)C(N)=NCCCCCCN
inactive: endpoint: mean survival time, dose: 3.13 mg/kg/injection, schedule: Q04DX002 (ip), vehicle: saline 116 % of control | endpoint: mean survival time, dose: 6.25 mg/kg/injection, schedule: Q04DX002 (ip), vehicle: saline 90 % of control | endpoint: mean survival time, dose: 12.5 mg/kg/injection, schedule: Q04DX002 (ip), vehicle: saline 101 % of control

CC12C(=O)C=CCC1=CCC1C2CCC2(O)C(=O)OC3(C)C4CC5(C)C(COC16OC23C5C6=O)C(=O)O4 (stereo not drawn)
inactive: endpoint: median survival time, dose: 25.0 mg/kg/injection, schedule: Q01DX009 (ip), vehicle: Klucel (hydroxypropylcellulose) (HPC) 102 % of control | endpoint: median survival time, dose: 50.0 mg/kg/injection, schedule: Q01DX009 (ip), vehicle: Klucel (hydroxypropylcellulose) (HPC) 96 % of control | endpoint: median survival time, dose: 100.0 mg/kg/injection, schedule: Q01DX009 (ip), vehicle: Klucel (hydroxypropylcellulose) (HPC) 100 % of control | endpoint: median survival time, dose: 200.0 mg/kg/injection, schedule: Q01DX009 (ip), vehicle: Klucel (hydroxypropylcellulose) (HPC) 108 % of control

NC(=S)N/N=C/c1ccc2c(c1)OCO2
inactive: [7] 98 % of control | [8] 110 % of control | [9] 98 % of control

CC1(C)C(C2CCCC[N+]2=O)CS1(=O)=O (stereo not drawn)
inactive: [1] 100 % of control | endpoint: mean survival time, dose: 100.0 mg/kg/injection, schedule: Q04DX003 (ip), vehicle: saline 101 % of control | [3] 100 % of control | endpoint: mean survival time, dose: 200.0 mg/kg/injection, schedule: Q04DX003 (ip), vehicle: saline 103 % of control | [5] 96 % of control | endpoint: mean survival time, dose: 400.0 mg/kg/injection, schedule: Q04DX003 (ip), vehicle: saline 105 % of control

CC1(C)N=C(N)N=C(N)N1c1cccc(CCCCc2ccc(S(=O)(=O)F)cc2)c1
inactive: endpoint: mean survival time, dose: 25.0 mg/kg/injection, schedule: Q01DX009 (ip), vehicle: saline 105 % of control

C=C(C)[C@H]1CN[C@H](C(=O)O)[C@H]1CC(=O)O
inactive: endpoint: mean survival time, dose: 5.0 mg/kg/injection, schedule: Q01DX001 (ip), vehicle: saline 94 % of control | endpoint: median survival time, dose: 0.31 mg/kg/injection, schedule: Q01DX009 (ip), vehicle: saline with Tween-80 103 % of control | endpoint: median survival time, dose: 0.62 mg/kg/injection, schedule: Q01DX009 (ip), vehicle: saline with Tween-80 101 % of control | endpoint: median survival time, dose: 1.25 mg/kg/injection, schedule: Q01DX009 (ip), vehicle: saline with Tween-80 100 % of control | endpoint: median survival time, dose: 2.5 mg/kg/injection, schedule: Q01DX009 (ip), vehicle: saline with Tween-80 101 % of control | endpoint: median survival time, dose: 2.5 mg/kg/injection, schedule: Q01DX009 (ip), vehicle: saline 96 % of control | endpoint: median survival time, dose: 5.0 mg/kg/injection, schedule: Q01DX009 (ip), vehicle: saline with Tween-80 101 % of control | endpoint: median survival time, dose: 5.0 mg/kg/injection, schedule: Q01DX009 (ip), vehicle: saline 103 % of control | endpoint: median survival time, dose: 6.25 mg/kg/injection, schedule: Q01DX009 (ip), vehicle: saline 104 % of control | endpoint: median survival time, dose: 10.0 mg/kg/injection, schedule: Q01DX009 (ip), vehicle: saline with Tween-80 101 % of control | endpoint: median survival time, dose: 10.0 mg/kg/injection, schedule: Q01DX009 (ip), vehicle: saline 101 % of control | endpoint: median survival time, dose: 12.5 mg/kg/injection, schedule: Q01DX009 (ip), vehicle: saline 108 % of control | endpoint: median survival time, dose: 20.0 mg/kg/injection, schedule: Q01DX009 (ip), vehicle: saline 95 % of control | endpoint: median survival time, dose: 25.0 mg/kg/injection, schedule: Q01DX009 (ip), vehicle: saline 97 % of control | endpoint: median survival time, dose: 40.0 mg/kg/injection, schedule: Q01DX009 (ip), vehicle: saline 93 % of control | endpoint: median survival time, dose: 50.0 mg/kg/injection, schedule: Q01DX009 (ip), vehicle: saline 96 % of control

[N-]=[N+]=NC(=O)c1cnc(OCc2ccccc2)nc1N
inactive: [10] 91 % of control | [8] 93 % of control | [11] 96 % of control | [9] 96 % of control | [12] 94 % of control | [13] 93 % of control

N#C/C(=C\C=C\c1cccc([N+](=O)[O-])c1)c1ccccc1
inactive: [10] 96 % of control | [8] 100 % of control and 103 % of control | [2] 102 % of control | [14] 97 % of control | [11] 105 % of control | [9] 96 % of control and 107 % of control | [4] 98 % of control | [15] 105 % of control | [12] 97 % of control | [13] 94 % of control and 100 % of control | [6] 100 % of control | [16] 94 % of control

C[S+](C)CC(C)(C)CI
inactive: endpoint: mean survival time, dose: 25.0 mg/kg/injection, schedule: Q01DX001 (ip), vehicle: saline 100 % of control | endpoint: mean survival time, dose: 50.0 mg/kg/injection, schedule: Q01DX001 (ip), vehicle: saline 110 % of control | [1] 100 % of control and 101 % of control

COc1ccc(-c2ccc(-c3ccc(S(=O)(=O)c4ccc(-c5ccc(-c6ccc(OC)cc6)cc5)c(N)c4)cc3N)cc2)cc1
inactive: [8] 110 % of control | [9] 89 % of control | [13] 89 % of control

OC1(c2ccccc2)c2cc(-c3ccccc3)c(-c3ccccc3)cc2C(c2ccccc2)(c2ccccc2)C1(O)c1ccccc1 (stereo not drawn)
inactive: endpoint: mean survival time, dose: 50.0 mg/kg/injection, schedule: Q01DX001 (ip), vehicle: saline with Tween-80 96 % of control | [10] 96 % of control | [11] 96 % of control

CSc1nc2cc(S(=O)(=O)N3CCCCC3)ccc2s1
inactive: [8] 93 % of control | [14] 89 % of control | [9] 95 % of control | [15] 89 % of control | [13] 93 % of control | [16] 86 % of control
